Measured values from US12312379B2, “Methods for producing cyclic compounds comprising N-substituted amino acid residues” (Chugai Seiyaku Kabushiki Kaisha, priority 2021, dated 2025).
≈ marks a conversion by molar mass, not a printed value. Like-named read-outs stand apart in the source and are kept apart here.

Legend:
[1] = Merck Index 14th Edition; Org. Process Res. Dev. 2007 for 2-MeTHF; cited from earlier work
[2] = water/octanol; literature or database values; cited from earlier work
[3] = cited from earlier work
Amount of acetone by GC = type: physicochemical; settings: wet crystals
Procedure: The conditions for analyzing the amount of acetone by GC are shown below. • Instrument: GC-2010 (manufactured by SHIMADZU CORPORATION) • Column: DB-624 (Agilent), 0.530 mm ID×30 m, 3.00 μm • Column temperature: 50° C. (5 min)→10° C./min→90° C. (0 min)→50° C./min→240° C. (5 min) • Injector temperature: 230° C. • Detector temperature: 250° C. • Split ratio: 20/1 • Flow rate: 30 cm/sec

[4] = Water content by Karl Fischer titration (CA-200); type: physicochemical; settings: wet crystals
Excerpt: The conditions for analyzing the water content by Karl Fischer titration method are shown below. • Instrument: CA-200 (manufactured by Nittoseiko Analytech Co., Ltd.) • Anolyte: Aquamicron AKX • Catholyte: Aquamicron CXU

[5] = Water content by Karl Fischer titration (CA-310); type: physicochemical; settings: after acclimatization of the sample to laboratory environment
Procedure: The water content of the hydrate crystals (Form C) of Compound 1 prepared in Example 26 was measured by Karl Fischer titration method. After acclimatization of the sample to laboratory environment, the measurement was carried out using CA-310 (manufactured by Nittoseiko Analytech).

[6] = Dynamic water vapor adsorption (DVS Intrinsic); type: physicochemical; settings: 25° C., relative humidity range of 0% to 95%, relative to the weight when the relative humidity is 0%
Procedure: The dynamic water vapor adsorption properties of the hydrate crystals (Form C) of Compound 1 prepared in Example 26 were measured by the following method. The results are shown in FIG. 10. • Measurement apparatus: DVS Intrinsic (manufactured by Surface Measurement Systems) • Temperature: 25° C. • Relative humidity (%) measurement points: • Cycle 1: 0, 10, 20, 30, 40, 50, 60, 70, 80, 90, 95, 90, 80, 70, 60, 50, 40, 30, 20, 10, 0(%); • Cycle 2: 10, 20, 30, 40, 50, 60, 70, 80, 90, 95, 90, 80, 70, 60, 50, 40, 30, 20, 10, 0(%) • Threshold: 0.001 dm/dt (%/min) • Minimum adsorption time: 10 min • Maximum adsorption time: 1440 min

[7] = Powder X-ray diffraction at different humidities; type: physicochemical; settings: 35.0 °C, relative humidity of 75% to 0%, versus Form C obtained in Example 25
Procedure: Powder X-ray diffraction of the hydrate crystals (Form C) of Compound 1 prepared in Example 26 was measured at different humidities by the following method. Measurement apparatus: SmartLab System, D/Tex Ultra detector, humidity generator HUM-SL (manufactured by Rigaku Corporation) • Anticathode: Cu • Tube voltage: 45 kV • Tube current: 200 mA • Scanning range: 5-30° • Scanning speed: 0.7°/min • Sampling width: 0.02° • Varying humidity conditions: […]

[8] = Org. Process Res. Dev. 2007 / J. Mol. Catal. A Chem. 2010

Compound | miscibility / solubility in water (in words) [1] | log Kow values or predicted log Kow values [2] | amount that dissolves in 1 L of water ([3]; Merck Index 14th Edition) [g] | further results
CC1CCCO1 (stereo not drawn) [Compound 2-MeTHF, 2-methyltetrahydrofuran] | not miscible with water | 1.35 |  | amount that dissolves in 1 L of water [3, 8]: 140 g; water solubility ([3]; room temperature (e.g. 25° C.)): 150 mg/mL (≈ 1740 mM)
C[S+](C)[O-] [DMSO, dimethyl sulfoxide] | soluble in water | −0.31 |  | water solubility ([3]; ChemIDplus Advanced (NIH)): 1000 mg/mL (≈ 12800 mM)
CC#N [acetonitrile] | miscible with water | −0.34 |  | 
COc1ccccc1 [anisole] |  | 2.11 |  | 
COC(=O)OC [dimethyl carbonate] |  | 0.23 | 139 | amount that dissolves in 1 L of water [3, 8]: 139 g
CCOC(C)=O [ethyl acetate] |  | 0.73 | 100 | 
CCCCCCC [heptane] | insoluble in water | 4.66 |  | 
CC(=O)OC(C)C [isopropyl acetate] |  | 1.02 | 43 | 
(5S,8S,11S,15S,18S,23aS,29S,35S,37aS)-8-((S)-sec-butyl)-18-cyclopentyl-29-(3,5-difluoro-4-(trifluoromethyl)phenethyl)-36-ethyl-11-isobutyl-N,N,5,6,12,16,19,33-octamethyl-35-(4-methylbenzyl)-4,7,10,13,17,20,23,28,31,34,37-undecaoxotetratriacontahydro-2H,4H-spiro[azeto[2,1-u]pyrrolo[2,1-i][1,4,7,10,13,16,19,22,25,28,31]undecaazacyclotetratriacontin-21,1′-cyclopentane]-15-carboxamide |  |  |  | acetone content (Amount of acetone by GC): 3.7%; water content [4]: 17.5%
(5S,8S,11S,15S,18S,23aS,29S,35S,37aS)-8-((S)-sec-butyl)-18-cyclopentyl-29-(3,5-difluoro-4-(trifluoromethyl)phenethyl)-36-ethyl-11-isobutyl-N,N,5,6,12,16,19,33-octamethyl-35-(4-methylbenzyl)-4,7,10,13,17,20,23,28,31,34,37-undecaoxotetratriacontahydro-2H,4H-spiro[azeto[2,1-u]pyrrolo[2,1-i][1,4,7,10,13,16,19,22,25,28,31]undecaazacyclotetratriacontin-21,1′-cyclopentane]-15-carboxamide [hydrate crystals (Form C) of Compound 1] |  |  |  | water content [5]: 6.50 wt %; weight change as the hydration number changes [6]: ≤ 3.3 % weight; shift in 2θ values [7]: ≤ 0.2 °
